Assay results as given in patent publication US5952339A, “Pharmaceutical compositions and methods of using nicotinic antagonists for treating a condition or disorder characterized by alteration in normal neurotransmitter release” (priority 1998, dated 1999).
Like-named read-outs stand apart in the source and are kept apart here.

Tests used:
[1] = molecular target: T1, CNS nicotinic receptors (Rattus norvegicus, UniProt P09483+P12390); assay: Determination of binding to relevant receptor sites
T1 construct: from tissue
Method: Determination of Binding to Relevant Receptor Sites
Binding of the compounds to relevant receptor sites was determined in accordance with the techniques described in U.S. Pat. No. 5,597,919 to Dull et al. Inhibition constants (Ki values), reported in nM, were calculated from the IC50 values using the method of Cheng et al., Biochem, Pharmacol. 22:3099 (1973).

[2] = molecular target: T2, muscle-type receptors (Homo sapiens, UniProt P02708+P07510+Q07001); assay: Determination of interaction with muscle receptors; assay type: biochemical; details: percentage of the maximal activation induced by (S)-(-)-nicotine
T2 construct: endogenous in cells
Method: Determination of Interaction with Muscle Receptors
(§1) The determination of the interaction of the compounds with muscle receptors was carried out in accordance with the techniques described in U.S. Pat. No. 5,597,919 to Dull et al. The maximal activation for individual compounds (Emax) was determined as a percentage of the maximal activation induced by (S)-(-)-nicotine. Reported Emax values represent the amount released relative to (S)-(-)-nicotine on a percentage basis.

[3] = system: dopamine release; assay: Determination of receptor activation/inhibition: dopamine release; assay type: biochemical; details: for Emax (dopamine release): amount released relative to (S)-(-)-nicotine or TMA
Method: Determination of Receptor Activation/Inhibition and Dopamine Release
Dopamine release was measured using the techniques described in U.S. Pat. No. 5,597,919 to Dull et al. Release is expressed as a percentage of release obtained with a concentration of (S)-(-)-nicotine resulting in maximal effects. Reported EC50 values are expressed in nM, and Emax values represent the amount released relative to (S)-(-)-nicotine or tetramethylammonium ion (TMA), on a percentage basis.
(§2) Reported IC50 values are expressed in nM and represent the concentration resulting in 50% inhibition of agonist induced receptor activation. Emax values represent the amount released relative to (S)-(-)-nicotine on a percentage basis.

[4] = molecular target: T3, ganglia-type receptors (Rattus norvegicus, UniProt P04757+P12392); assay: Determination of interaction with ganglion receptors; assay type: biochemical; details: percentage of the maximal activation induced by (S)-(-)-nicotine
T3 construct: endogenous in cells
Method: Determination of Interaction with Ganglion Receptors
as §1, with “ganglionic” for “muscle”

[5] = molecular target: T1, CNS nicotinic receptors; assay: Isotopic rubidium ion release; assay type: biochemical; details: for Emax: read-out: Emax (rubidium ion release)
Method: Isotopic rubidium release was measured using the techniques described in Bencherif et al., JPET, 279: 1413-1421 (1996). Reported EC50 values are expressed in nM, and Emax values represent the amount of rubidium ion released relative to 300 uM tetranmethylammonium ion, on a percentage basis.
as §2

[6] = calculated from IC50 values using the method of Cheng et al., read-out: Ki
[7] = read-out: EC50 (rubidium ion release)

T2 sequence (P02708 21-457): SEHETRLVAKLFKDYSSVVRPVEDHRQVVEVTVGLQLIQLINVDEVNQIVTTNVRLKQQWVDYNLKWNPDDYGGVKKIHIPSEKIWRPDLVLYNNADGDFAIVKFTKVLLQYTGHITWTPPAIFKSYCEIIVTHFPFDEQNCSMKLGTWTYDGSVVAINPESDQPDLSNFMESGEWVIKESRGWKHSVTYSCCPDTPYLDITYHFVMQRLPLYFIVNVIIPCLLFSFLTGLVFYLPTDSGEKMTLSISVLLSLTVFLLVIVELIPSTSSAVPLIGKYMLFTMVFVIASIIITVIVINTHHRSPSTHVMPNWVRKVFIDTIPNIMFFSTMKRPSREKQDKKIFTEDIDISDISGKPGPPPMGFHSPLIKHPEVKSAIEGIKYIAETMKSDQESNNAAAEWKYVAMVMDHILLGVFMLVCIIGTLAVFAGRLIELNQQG
T2 sequence (P11230 24-501, further chain): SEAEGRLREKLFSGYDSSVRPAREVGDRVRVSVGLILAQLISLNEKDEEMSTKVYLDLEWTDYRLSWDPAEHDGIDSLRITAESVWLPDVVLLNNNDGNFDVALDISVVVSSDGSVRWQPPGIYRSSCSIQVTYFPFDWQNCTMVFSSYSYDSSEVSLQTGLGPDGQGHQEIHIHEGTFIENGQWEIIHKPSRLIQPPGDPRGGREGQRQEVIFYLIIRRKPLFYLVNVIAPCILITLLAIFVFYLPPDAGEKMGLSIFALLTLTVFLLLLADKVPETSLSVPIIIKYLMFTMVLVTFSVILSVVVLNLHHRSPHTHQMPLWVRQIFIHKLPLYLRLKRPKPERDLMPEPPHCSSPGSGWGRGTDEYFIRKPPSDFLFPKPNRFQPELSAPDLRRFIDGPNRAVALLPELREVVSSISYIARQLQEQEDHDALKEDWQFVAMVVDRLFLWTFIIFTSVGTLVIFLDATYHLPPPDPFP
T2 sequence (P07510 23-517): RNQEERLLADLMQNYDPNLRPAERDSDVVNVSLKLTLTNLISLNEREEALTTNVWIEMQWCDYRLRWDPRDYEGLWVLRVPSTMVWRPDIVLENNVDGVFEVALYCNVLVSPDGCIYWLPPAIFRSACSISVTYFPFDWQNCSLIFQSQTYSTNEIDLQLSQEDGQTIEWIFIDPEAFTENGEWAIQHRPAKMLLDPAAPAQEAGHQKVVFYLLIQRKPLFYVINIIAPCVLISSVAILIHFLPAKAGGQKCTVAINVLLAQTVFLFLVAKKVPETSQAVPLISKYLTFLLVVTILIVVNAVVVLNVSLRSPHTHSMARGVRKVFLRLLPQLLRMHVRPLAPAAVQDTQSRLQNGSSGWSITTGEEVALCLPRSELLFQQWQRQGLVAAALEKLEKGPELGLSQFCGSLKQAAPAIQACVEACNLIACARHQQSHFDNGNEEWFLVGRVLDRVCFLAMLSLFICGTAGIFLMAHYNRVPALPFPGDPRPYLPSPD
T2 sequence (Q07001 22-517): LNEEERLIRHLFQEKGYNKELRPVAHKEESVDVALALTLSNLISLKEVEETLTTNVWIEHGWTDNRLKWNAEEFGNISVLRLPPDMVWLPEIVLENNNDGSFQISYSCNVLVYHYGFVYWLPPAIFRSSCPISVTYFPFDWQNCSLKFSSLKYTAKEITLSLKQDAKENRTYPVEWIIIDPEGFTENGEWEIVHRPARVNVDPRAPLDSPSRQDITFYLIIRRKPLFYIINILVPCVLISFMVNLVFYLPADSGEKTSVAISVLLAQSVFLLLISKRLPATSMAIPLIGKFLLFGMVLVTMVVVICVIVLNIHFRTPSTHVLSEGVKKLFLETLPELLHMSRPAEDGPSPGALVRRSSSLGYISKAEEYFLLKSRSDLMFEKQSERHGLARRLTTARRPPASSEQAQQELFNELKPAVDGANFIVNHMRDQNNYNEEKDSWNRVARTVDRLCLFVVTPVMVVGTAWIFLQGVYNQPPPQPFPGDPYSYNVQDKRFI
T1 sequence (P09483 31-630): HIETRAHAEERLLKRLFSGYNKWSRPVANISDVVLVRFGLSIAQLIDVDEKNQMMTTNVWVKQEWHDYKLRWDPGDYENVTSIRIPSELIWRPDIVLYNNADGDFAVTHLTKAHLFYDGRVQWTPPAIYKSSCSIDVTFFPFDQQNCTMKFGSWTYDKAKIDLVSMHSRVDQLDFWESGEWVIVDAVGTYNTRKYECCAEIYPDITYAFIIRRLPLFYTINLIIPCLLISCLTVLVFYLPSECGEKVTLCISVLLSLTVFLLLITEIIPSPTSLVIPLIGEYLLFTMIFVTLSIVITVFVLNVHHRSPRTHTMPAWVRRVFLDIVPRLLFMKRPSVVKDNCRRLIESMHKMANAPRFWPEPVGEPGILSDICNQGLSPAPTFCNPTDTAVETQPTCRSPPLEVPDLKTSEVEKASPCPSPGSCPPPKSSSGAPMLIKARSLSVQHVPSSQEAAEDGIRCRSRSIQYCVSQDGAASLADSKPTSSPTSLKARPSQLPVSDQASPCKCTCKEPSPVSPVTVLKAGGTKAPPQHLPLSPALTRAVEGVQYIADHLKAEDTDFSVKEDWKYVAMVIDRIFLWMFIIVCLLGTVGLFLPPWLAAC
T1 sequence (P12390 25-500): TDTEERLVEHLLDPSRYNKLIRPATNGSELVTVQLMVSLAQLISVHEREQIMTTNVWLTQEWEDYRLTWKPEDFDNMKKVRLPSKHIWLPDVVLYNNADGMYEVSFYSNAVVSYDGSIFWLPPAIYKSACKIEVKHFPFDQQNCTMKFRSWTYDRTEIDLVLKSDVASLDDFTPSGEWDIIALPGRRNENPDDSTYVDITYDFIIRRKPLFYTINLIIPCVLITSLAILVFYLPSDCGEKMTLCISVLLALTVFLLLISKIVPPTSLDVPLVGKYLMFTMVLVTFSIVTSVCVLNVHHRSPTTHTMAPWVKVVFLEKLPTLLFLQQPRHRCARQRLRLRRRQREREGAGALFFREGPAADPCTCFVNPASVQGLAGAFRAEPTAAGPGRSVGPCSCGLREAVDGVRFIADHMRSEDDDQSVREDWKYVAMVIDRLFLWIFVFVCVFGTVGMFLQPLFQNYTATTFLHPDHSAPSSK
T3 sequence (P04757 26-499): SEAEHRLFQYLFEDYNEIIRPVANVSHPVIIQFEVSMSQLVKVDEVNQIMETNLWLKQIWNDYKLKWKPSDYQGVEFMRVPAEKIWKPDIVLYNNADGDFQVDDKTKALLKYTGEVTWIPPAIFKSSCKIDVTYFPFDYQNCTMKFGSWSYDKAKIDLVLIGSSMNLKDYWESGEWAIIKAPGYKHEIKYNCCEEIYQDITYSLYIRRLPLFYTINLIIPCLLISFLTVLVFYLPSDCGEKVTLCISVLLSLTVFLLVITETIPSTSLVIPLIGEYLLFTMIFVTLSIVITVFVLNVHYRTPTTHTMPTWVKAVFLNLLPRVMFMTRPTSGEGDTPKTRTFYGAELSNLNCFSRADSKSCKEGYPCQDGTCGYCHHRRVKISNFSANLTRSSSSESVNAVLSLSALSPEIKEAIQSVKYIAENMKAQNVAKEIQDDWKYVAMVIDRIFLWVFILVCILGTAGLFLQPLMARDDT
T3 sequence (P12392 21-495): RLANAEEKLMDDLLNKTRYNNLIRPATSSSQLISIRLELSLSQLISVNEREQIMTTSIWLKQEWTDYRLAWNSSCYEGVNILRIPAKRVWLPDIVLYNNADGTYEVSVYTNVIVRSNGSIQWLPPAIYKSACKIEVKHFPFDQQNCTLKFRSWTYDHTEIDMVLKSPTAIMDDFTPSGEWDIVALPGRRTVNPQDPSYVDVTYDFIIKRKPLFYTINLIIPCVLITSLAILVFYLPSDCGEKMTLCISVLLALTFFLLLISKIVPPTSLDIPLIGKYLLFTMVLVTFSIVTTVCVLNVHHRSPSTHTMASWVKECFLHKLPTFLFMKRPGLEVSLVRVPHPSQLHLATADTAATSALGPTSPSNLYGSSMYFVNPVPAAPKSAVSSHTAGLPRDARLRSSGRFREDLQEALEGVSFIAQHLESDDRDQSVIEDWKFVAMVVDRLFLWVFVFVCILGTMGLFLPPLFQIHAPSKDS

SMILES	Ki [1, 6] [nM]	Emax [2] [%]	Emax (dopamine release) [3] [%]	Emax [4] [%]	Ki [1] [nM]	EC50 [5, 7] [µM]	Emax [5] [%]	EC50 [5] [µM]	IC50 ([3]; 50% inhibition of agonist induced receptor activation) [nM]	IC50 [5] [nM]
c1cncc(C2C3CC4CC(C3)CN2C4)c1 (stereo not drawn) [Sample No. 1, 1-aza-2-(3-pyridyl)-tricyclo[3.3.1.1^3,7]decane]	15	21	0	27	–	–	–	–	–	–
Brc1cncc(C2C3CC4CC(C3)CN2C4)c1 (stereo not drawn) [Sample No. 2, 1-aza-2-[5-bromo(3-pyridyl)]tricyclo[3.3.1.1^3,7]decane]	–	32	0	50	2	> 100	0	–	–	–
Cl.Cl.Cl.Nc1cncc(C2C3CC4CC(C3)CN2C4)c1 (stereo not drawn) [Sample No. 3, 1-aza-2-[5-amino-(3-pyridyl)]tricyclo[3.3.1.1^3,7]decane trihydrochloride]	44	75	0	17	–	–	0	> 100	–	–
CCOc1cncc(C2C3CC4CC(C3)CN2C4)c1 (stereo not drawn) [Sample No. 4, 1-aza-2-[5-ethoxy-(3-pyridyl)]-tricyclo-[3.3.1.1^3,7]decane]	–	22	0	0	1	> 100	0	–	846	630
CC(C)Oc1cncc(C2C3CC4CC(C3)CN2C4)c1 (stereo not drawn) [Sample No. 5, 1-aza-2-[5-isopropoxy-(3-pyridyl)]tricyclo[3.3.1.1^3,7]decane]	–	114	0	7	24	> 100	0	–	–	–
